Source: article PMC11314561, “Design and Synthesis of Novel Aminoindazole-pyrrolo[2,3-b]pyridine Inhibitors of IKKα That Selectively Perturb Cellular Non-Canonical NF-κB Signalling” (Molecules, 2024)
pIC50: −log10 of the molar value.

Experiments:
[1] = test system: IKKβ-mediated p65 phosphorylation (Ser536) in U2OS cells; assay: TNFα-stimulated p65 (Ser536) phosphorylation, Western blotting; type: cell-based; conditions: Homo sapiens, 1 h pre-treatment, TNFα 30 min
Experimental: (§1) To assess the translation of the biochemical potencies and selectivities described above to a cell-based setting, exemplars from the series were initially examined for inhibitory action against IKKs in the U2OS osteosarcoma cell line. This cell type was utilised to represent cells with a proliferative phenotype dependent on the constitutively activated IKKα-mediated non-canonical NF-κB pathway. Compounds 5r [SU1261]
(§2) U2OS cells were cultured in McCoy’s 5A Modified Medium, and PC-3M-Luc-C6 prostate cancer cells were cultured in Minimum Essential Medium (MEM), each containing 10% (v/v) Foetal Calf Serum (FCS), L-glutamine ([…]), and penicillin/streptomycin (250 units/mL; 100 μg/mL) and incubated in a humidified atmosphere at 37 °C with 5% (v/v) CO2. Cells were grown to near confluence and prior to experimentation rendered quiescent by serum deprivation for 24 h.
To examine the potential impact of compounds on canonical NF-κB signalling, cells were then exposed to vehicle (DMSO; 0.05% (v/v)) or increasing concentrations of compounds (0.01–30 µM) for 1 h prior to treatment with TNF⍺ (20 ng/mL) for 30 min. Whole-cell extracts were prepared, and the status of IκB⍺, phospho-p65 (Ser536), p65, and phospho-p105 ([…]) was also assessed by Western blotting.
(§3) Each figure/panel of Western blotting data represents one of at least three separate experiments. Western blots were scanned and imaged using Adobe Photoshop 5.0.2 software and polypeptide bands were semi-quantified by scanning densitometry using the Scion Image program. Data were normalised to fold expression/inhibition relative to ‘agonist plus vehicle’ treatment and expressed as mean ± s.e.m. IC50 values were established by curve fitting using the Hill equation.
Figure 11 Compound 5r [SU1261] inhibits FCS-stimulated p100 phosphorylation (Ser866/870) with no impact on TNFα-stimulated IkBα degradation and limited impact on phosphorylation of p65 (Ser536) in U2OS osteosarcoma cells. […] (0.3–30 µM) for 1 h prior to treatment with FCS (10% (v/v)) for 4 h, and phospho-p100 (Ser866/870) was assessed by Western blotting. […]

[2] = test system: IKKα-mediated p100 phosphorylation (Ser866/870) in U2OS cells; assay: FCS-stimulated p100 phosphorylation (Ser866/870), Western blotting; type: cell-based; conditions: Homo sapiens, 1 h pre-treatment, FCS 10% 4 h
Experimental: as §1, §2
For examination of potential effects of compound on non-canonical NF-κB signalling, cells were exposed to vehicle (DMSO; 0.03–0.05% (v/v)) or increasing concentrations of compounds (0.01–30 µM) for 1 h prior to treatment with FCS (10% (v/v); for U2OS cells) or LTα1β2 (20 ng/mL; for PC-3M cells) for 4 h. The status of p-p100 (Ser 866/870) in whole-cell extracts prepared from 12-well plates was assessed by Western blotting, as described in McKenzie et al.. […] Thereafter, p52 and RelB status in crude nuclear extracts normalised for protein amounts were assessed by Western blotting.
as §3, with “IC50 values were established by curve fitting using the Hill equation.” left out

MST2(h) = biological target: T1, MST2(h) (Homo sapiens, UniProt Q13188); assay: kinase panel; type: biochemical
T1 sequence (Q13188 1-491): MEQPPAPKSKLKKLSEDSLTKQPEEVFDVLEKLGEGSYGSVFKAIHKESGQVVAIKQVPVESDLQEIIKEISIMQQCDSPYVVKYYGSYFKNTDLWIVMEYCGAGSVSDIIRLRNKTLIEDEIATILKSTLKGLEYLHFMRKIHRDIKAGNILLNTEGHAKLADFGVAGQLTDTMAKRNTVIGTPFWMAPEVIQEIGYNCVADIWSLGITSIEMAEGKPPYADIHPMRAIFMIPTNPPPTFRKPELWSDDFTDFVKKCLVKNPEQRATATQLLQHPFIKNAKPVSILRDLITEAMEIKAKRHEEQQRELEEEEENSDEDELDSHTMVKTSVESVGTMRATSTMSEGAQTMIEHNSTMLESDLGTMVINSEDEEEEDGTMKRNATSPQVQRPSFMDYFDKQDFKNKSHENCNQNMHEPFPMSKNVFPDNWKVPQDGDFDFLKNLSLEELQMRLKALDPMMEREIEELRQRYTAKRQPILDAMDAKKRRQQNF
Description: (§4) We profiled three compounds from the series across the kinome (Table S1).
(§5) Ta b l e S1. The % inhibition of compounds 4, 5r [SU1261], and 6g [SU1349] against a
(§6) panel of kinase enzymes. We proϐiled three compounds from the series across 231
(§7) kinases. For SU1349, given its structural similarity with SU1261, we selected 98 from the
(§8) Tested kinase % inhibiƟon

MSK1(h) = MSK1(h) (Homo sapiens, UniProt O75582); assay: kinase panel; type: biochemical
MSK1(h), sequence (O75582 whole entry): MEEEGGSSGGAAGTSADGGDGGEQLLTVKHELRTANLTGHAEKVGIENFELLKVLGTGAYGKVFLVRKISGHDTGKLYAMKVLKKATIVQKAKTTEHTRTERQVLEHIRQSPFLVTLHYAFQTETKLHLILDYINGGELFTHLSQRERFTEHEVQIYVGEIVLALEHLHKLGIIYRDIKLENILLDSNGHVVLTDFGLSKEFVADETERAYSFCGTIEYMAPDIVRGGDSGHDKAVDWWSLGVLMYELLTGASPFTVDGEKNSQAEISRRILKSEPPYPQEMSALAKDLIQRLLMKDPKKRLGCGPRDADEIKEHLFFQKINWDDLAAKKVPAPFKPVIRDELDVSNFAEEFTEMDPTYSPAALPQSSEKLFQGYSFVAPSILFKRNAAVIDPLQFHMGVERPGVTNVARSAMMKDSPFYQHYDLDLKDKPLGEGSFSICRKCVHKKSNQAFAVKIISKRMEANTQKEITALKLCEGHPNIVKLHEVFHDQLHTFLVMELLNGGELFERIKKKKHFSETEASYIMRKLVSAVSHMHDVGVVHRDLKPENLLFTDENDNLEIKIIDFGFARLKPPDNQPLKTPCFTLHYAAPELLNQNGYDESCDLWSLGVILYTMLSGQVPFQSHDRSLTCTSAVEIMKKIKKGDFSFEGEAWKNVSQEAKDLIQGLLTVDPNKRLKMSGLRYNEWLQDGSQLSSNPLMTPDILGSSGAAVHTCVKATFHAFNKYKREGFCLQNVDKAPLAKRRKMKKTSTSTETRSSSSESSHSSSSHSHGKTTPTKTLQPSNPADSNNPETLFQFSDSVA
Description: as §4, §5, §6, §7, §8

CaMKIIβ(h) = CaMKIIβ(h) (Homo sapiens, UniProt Q13554); assay: kinase panel; type: biochemical
CaMKIIβ(h), sequence (Q13554 whole entry): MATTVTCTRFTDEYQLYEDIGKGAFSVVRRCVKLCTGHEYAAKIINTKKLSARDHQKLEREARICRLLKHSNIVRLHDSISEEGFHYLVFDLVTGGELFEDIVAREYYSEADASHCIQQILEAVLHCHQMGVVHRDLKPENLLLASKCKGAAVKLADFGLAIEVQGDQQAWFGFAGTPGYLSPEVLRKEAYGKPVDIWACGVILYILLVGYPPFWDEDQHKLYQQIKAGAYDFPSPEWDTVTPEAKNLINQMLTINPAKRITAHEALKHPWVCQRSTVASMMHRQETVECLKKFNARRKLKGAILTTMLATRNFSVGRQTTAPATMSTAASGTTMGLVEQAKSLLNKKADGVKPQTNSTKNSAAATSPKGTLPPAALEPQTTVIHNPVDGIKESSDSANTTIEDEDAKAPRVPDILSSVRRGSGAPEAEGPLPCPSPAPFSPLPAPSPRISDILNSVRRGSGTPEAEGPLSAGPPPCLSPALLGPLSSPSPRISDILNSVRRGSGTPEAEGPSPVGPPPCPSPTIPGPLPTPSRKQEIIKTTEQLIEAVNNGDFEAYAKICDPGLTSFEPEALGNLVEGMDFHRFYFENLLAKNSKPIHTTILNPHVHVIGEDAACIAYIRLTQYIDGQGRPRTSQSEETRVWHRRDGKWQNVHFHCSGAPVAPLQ
Description: as §4, §5, §6, §7, §8

Aurora-B(h) = Aurora-B(h) (Homo sapiens, UniProt Q96GD4); assay: kinase panel; type: biochemical
Aurora-B(h), sequence (Q96GD4 whole entry): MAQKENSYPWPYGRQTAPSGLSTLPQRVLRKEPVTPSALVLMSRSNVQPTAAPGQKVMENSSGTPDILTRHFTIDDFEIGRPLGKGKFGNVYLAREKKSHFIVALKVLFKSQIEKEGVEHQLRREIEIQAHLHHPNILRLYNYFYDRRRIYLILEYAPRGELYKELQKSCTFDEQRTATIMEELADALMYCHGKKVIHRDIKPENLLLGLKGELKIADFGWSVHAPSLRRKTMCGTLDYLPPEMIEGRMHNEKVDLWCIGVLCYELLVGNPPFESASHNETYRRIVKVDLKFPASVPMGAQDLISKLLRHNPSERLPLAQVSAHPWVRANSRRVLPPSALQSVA
Description: as §4, §5, §6, §7, §8

pIC50 [1]	pIC50 [2]	inhibition at 1 µM (MST2(h))	inhibition at 1 µM (MSK1(h))	inhibition at 1 µM (CaMKIIβ(h))	inhibition at 1 µM (Aurora-B(h))	Compound
5.25	5.54	-1%	-24%	47%	92%	Nc1n[nH]c2ccc(-c3ccnc4[nH]c(-c5cccc(OCc6ccccc6)c5)cc34)cc12 [Compound 5r [SU1261]]
< 4.52	5.06	4%	-4%	12%	71%	Nc1n[nH]c2ccc(-c3ccnc4[nH]c(-c5ccnc(OCc6ccccc6)c5)cc34)cc12 [Compound 6g [SU1349]]
6.52	6.16	5%	-2%	74%	99%	Nc1n[nH]c2ccc(-c3ccnc4[nH]c(-c5ccccc5)cc34)cc12 [Compound 4]
